Assay results from patent publication US11214542B2, “Histone demethylase inhibitors” (CELGENE QUANTICEL RESEARCH, INC., priority 2012, dated 2022).

Target: JMJD2C (Homo sapiens (Human), UniProt Q9H3R0)
Test: JMJD2C TR-FRET in vitro enzyme inhibition assay
Format: biochemical
Conditions: 0.3 nM JMJD2C, H3K9me3 peptide, read-out: JMJ-D2C IC50
Description: This assay determines the ability of a test compound to inhibit Jarid1A, Jarid1B, and JMJD2C demethylase activity. Baculovirus expressed Jarid1A (GenBank Accession #NM_001042603, AA1-1090) was purchased from BPS Bioscience (Cat #50110). Baculovirus expressed Jarid1B (GenBank Accession #NM_006618, AA 2-751) was purchased from BPS Bioscience (Cat #50121) or custom made by MolecularThroughput. Baculovirus-expressed JMJD2C (GenBank Accession #BC143571, AA 2-372) was purchased from BPS Bioscience (Cat #50105).
The ability of test compounds to inhibit the activity of JMJD2C was determined in 384-well plate format under the following reaction conditions: 0.3 nM JMJD2C, 300 nM H3K9me3-biotin labeled peptide (Anaspec cat #64360), 2 μM alpha-ketoglutaric acid in assay buffer of 50 mM HEPES, pH7.3, 0.005% Brij35, 0.5 mM TCEP, 0.2 mg/ml BSA, 50 μM sodium L-ascorbate, and 2 μM ammonium iron(II) sulfate. Reaction product was determined quantitatively by TR-FRET after the addition of detection reagent Phycolink Streptavidin-allophycocyanin (Prozyme) and Europium-anti-di-methylated histone H3 lysine 9 (H3K9me2) antibody (PerkinElmer) in the presence of 5 mM EDTA in LANCE detection buffer (PerkinElmer) at a final concentration of 50 nM and 1 nM, respectively.
The assay reaction was initiated by the following: 2 μl of the mixture of 900 nM H3K9me3-biotin labeled peptide and 6 μM alpha-ketoglutaric acid with 2 μl of 11-point serial diluted inhibitor in 3% DMSO were added to each well of the plate, followed by the addition of 2 μl of 0.9 nM JMJD2C to initiate the reaction. The reaction mixture was incubated at room temperature for 30 min, and terminated by the addition of 6 μl of 5 mM EDTA in LANCE detection buffer containing 100 nM Phycolink Streptavidin-allophycocyanin and 2 nM Europium-anti-H3K9me2 antibody. Plates were read by EnVisionMultilabel Reader in TR-FRET mode (excitation at 320 nm, emission at 615 nm and 665 nm) after 1 hr incubation at rt. A ratio was calculated (665/615) for each well and fitted to determine inhibition constant (IC50).

JMJD2C, sequence (Q9H3R0 2-372): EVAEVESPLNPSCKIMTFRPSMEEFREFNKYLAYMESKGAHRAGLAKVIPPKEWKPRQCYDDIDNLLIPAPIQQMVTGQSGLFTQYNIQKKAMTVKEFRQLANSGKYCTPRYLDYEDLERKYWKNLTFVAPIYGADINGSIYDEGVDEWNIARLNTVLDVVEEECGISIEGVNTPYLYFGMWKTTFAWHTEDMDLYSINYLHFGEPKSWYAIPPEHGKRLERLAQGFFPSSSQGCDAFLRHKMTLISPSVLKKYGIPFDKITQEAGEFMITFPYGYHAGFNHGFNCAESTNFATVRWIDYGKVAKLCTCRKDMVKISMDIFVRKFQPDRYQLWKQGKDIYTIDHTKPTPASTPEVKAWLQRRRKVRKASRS

Compound | IC50 [nM]
3-{[(6-chloro-1,2,3,4-tetra- hydronaphthalen-1-yl)methyl]- amino}pyridine-4-carboxylic acid [Example 68] | 100 to 1000
3-{[(6-chloro-1-hydroxy- 1,2,3,4-tetrahydronaphthalen- 1-yl)methyl]amino}pyridine- 4-carboxylic acid [Example 67] | 100 to 1000
O=C(O)c1ccncc1NCC1CCOc2cc(F)ccc21 (stereo not drawn) [Example 65, 3-{[(7-fluoro-3,4-dihydro-2H-chromen-4-yl)methyl]amino}-pyridine-4-carhoxylic acid] | ≤ 100
